Like-named read-outs stand apart in the source and are kept apart here.
Columns and labels:
[1] = tested on: patients with atherosclerosis undergoing PCI
Method: The protocol called for aspirin (75 to 325 mg) to be administered to all patients. […] The choice of a periprocedural anticoagulant (bivalirudin, unfractionated heparin, low-molecular-weight heparin, or fondaparinux) was also at the discretion of the investigator. Glycoprotein IIb/IIIa inhibitors were allowed only as rescue therapy during PCI to treat new or persistent thrombus formation, slow or no reflow, side-branch compromise, dissection, or distal embolization. The investigator at the site determined the protocol for management of the arterial sheath.
The inclusion criteria for the trial were men or nonpregnant women, 18 years of age or older with coronary atherosclerosis who required PCI for stable angina, a non-ST-segment elevation acute coronary syndrome, or ST-segment elevation myocardial infarction (STEMI). Patients were required to provide written informed consent.
Major exclusion criteria were receipt of a P2Y12 inhibitor or abciximab at any time in the 7 days before randomization and receipt of eptifibatide or tirofiban or fibrinolytic therapy in the 12 hours before randomization.
The primary efficacy end point was the composite rate of death from any cause, myocardial infarction, IDR, or stent thrombosis in the 48 hours after randomization in the modified intention-to-treat population (which comprised patients who actually underwent PCI and received the study drug). […] The key secondary end point was the incidence of stent thrombosis at 48 hours. This end point included definite stent thrombosis, defined according to the criteria of the Academic Research Consortium, or intraprocedural stent thrombosis, which was assessed, with group assignments concealed, at an angiographic core laboratory (Cardiovascular Research Foundation). Intraprocedural stent thrombosis was defined as any new or worsened thrombus related to the stent procedure that was confirmed angiographically. Events of death, myocardial infarction, IDR, and stent thrombosis that occurred during the first 30 days after randomization were adjudicated by the clinical events committee at the Duke Clinical Research Institute. The study adhered to the universal definition of myocardial infarction for myocardial infarction unrelated to PCI but expanded on the definition of PCI-related myocardial infarction.
The numbers and percentages of patients within each analysis population (modified intention-to-treat, intention-to-treat, and safety) were summarized according to treatment group. The primary efficacy analysis of the rate of the composite end point of death from any cause, myocardial infarction, IDR, or stent thrombosis (with all events adjudicated by the clinical events committee) in the 48 hours after randomization was conducted in the modified intention-to-treat population. The primary safety analysis was conducted in the safety population, which comprised all patients who underwent randomization and received at least one dose of the study drug; patients were classified according to the actual treatment received. All calculations and statistical analyses were performed with the use of SAS software, version 9.2.

P2Y12 receptor = target: T1, P2Y12 receptor (Homo sapiens, UniProt Q9H244); experiment: Example 4: VerifyNow P2Y12 assay, platelet reactivity in PRU; assay type: in vivo
T1 construct: from tissue; host or cells: platelets in whole blood of patients
Method: The study involved 12 patients who met the criteria of being 18-75 years of age, having coronary artery disease (CAD) documented by a previous MI or coronary revascularization, and taking 81 mg of aspirin daily. […] Use of non-steroidal anti-inflammatory agents was discouraged during study participation but not prohibited.
Each patient was administered a 30 μg/kg bolus of cangrelor followed immediately by a 2 hr infusion at a rate of 4.0 μg/kg/min. A loading dose of ticagrelor (180 mg) was given after 0.5 hr or 1.25 hr (n=6 for each). Blood for pharmacodynamic platelet function studies was taken after 0.5 or 1.25 hr (corresponding to the time of ticagrelor load, n=6 for each), and then at 1.75, 2, 2.25, 2.5, 2.75, 3, 4, and 5.25 hr. Patients were assigned randomly to receive either 6 (n=6) or 7 (n=6) doses of ticagrelor to be taken every 12 hours following the discontinuation of the infusion of cangrelor. On study day 5, each patient was administered a 30 μg/kg bolus of cangrelor followed immediately by a 2 hr infusion at a rate of 4.0 μg/kg/min. Blood for pharmacodynamic assessment was taken after 1 and 2 hr. Adverse events were queried throughout study participation that ended with a telephone interview performed on study day 10-12.
Pharmacodynamic assessment included light transmission aggregometry (LTA), VerifyNow® P2Y12 assay, vasodilator-stimulated phosphoprotein (VASP) index, and platelet activation measured with the use of flow cytometry. Assessment of LTA, VerifyNow®, and platelet activation with the use of flow cytometry was performed within 30 min of blood being taken. In the case of flow cytometry, samples were processed to fixation and then batched for analysis. For VASP, index samples were batched and processed as recommended by the vendor within 2 h of blood being taken. This approach limited the time from fixation of VASP index to flow analysis to less than 1 h.
LTA induced by 5 μM and 20 μM adenosine diphosphate (ADP) was quantified ex vivo (i.e. in non-adjusted platelet rich plasma). Platelet-poor plasma was set as 100% aggregation, and both maximal (peak) and terminal (at 300 s) aggregation were measured with a PAP4 aggregometer (BioData, Horsham, Pa.). VerifyNow® P2Y12 assay (Accumetrics Inc, San Diego, Calif.) that measures the effects of drugs on the P2Y12 receptor by activating platelets with prostaglandin El in addition to ADP was used in accordance with the instructions provided by the manufacturer. Platelet reactivity was expressed in P2Y12 reaction units (PRU). Activation of platelets was identified with the use of flow cytometry as previously described.^17. And to determine the VASP index, a commercially available kit (Diagnostica Stago, Inc, Parsippany NJ) was used. ^17 Schneider D J, Sobel B E. Streamlining the design of promising clinical trials: in-vitro testing of antithrombotic regimens and multiple agonists of platelet activation. Coron Artery Dis. 2009; 20:175-8.

[2] = 48 hours, ITT, rate in parentheses
[3] = reference 5.25 h, Ticagrelor at 0.5 h
[4] = reference 5.25 h, Ticagrelor at 1.25 h

T1 sequence (Q9H244 whole entry): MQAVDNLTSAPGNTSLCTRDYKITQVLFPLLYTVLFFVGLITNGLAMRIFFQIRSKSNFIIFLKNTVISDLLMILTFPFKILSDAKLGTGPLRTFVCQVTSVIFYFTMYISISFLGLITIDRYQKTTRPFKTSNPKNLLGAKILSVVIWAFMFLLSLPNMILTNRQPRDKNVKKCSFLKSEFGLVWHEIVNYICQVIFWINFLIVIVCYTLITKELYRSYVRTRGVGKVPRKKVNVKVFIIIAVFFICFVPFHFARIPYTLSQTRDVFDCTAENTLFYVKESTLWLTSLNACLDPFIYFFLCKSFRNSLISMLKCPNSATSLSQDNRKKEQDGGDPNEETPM

For `COC(=O)[C@H](c1ccccc1Cl)N1CCc2sccc2C1` [Clopidogrel, clopidogrel, reference compound], the “rate of stent thrombosis (key secondary efficacy end point)” value ([1]; 48 hours) was 1.4%, the Death ([1]; 48 hours, ITT, n/N) was 21/5561 and the Death/MI ([1]; 48 hours, ITT, n/N) was 275/5561. For the same compound, the Death/MI/IDR ([1]; 48 hours, ITT, n/N) was 289/5561, the Death/MI/IDR/ST ([1]; 48 hours, ITT, n/N) was 325/5561 and the “Death/MI/IDR/ST/GUSTO Severe Bleeding (Net Adverse Clinical Events, NACE)” value ([1]; 48 hours, ITT, n/N) was 330/5561. For the same compound, the Death/MI/ST ([1]; 48 hours, ITT, n/N) was 315/5561, the “Death/Q-wave MI/IDR” value ([1]; 48 hours, ITT, n/N) was 67/5561 and the Death/ST ([1]; 48 hours, ITT, n/N) was 90/5561. The IDR ([1]; 48 hours, ITT, n/N) was 38/5561, the MI ([1]; 48 hours, ITT, n/N) was 255/5561 and the “Q-wave MI” value ([1]; 48 hours, ITT, n/N) was 18/5561. For the same compound, the Stent thrombosis ([1]; 48 hours, ITT, n/N) was 74/5561, the Death [1, 2] was “(0.4)” and the Death/MI [1, 2] was “(5.0)”. For the same compound, the Death/MI/IDR [1, 2] was “(5.2)”, the Death/MI/IDR/ST [1, 2] was “(5.8)” and the “Death/MI/IDR/ST/GUSTO Severe Bleeding (Net Adverse Clinical Events, NACE)” value [1, 2] was “(5.9)”. For the same compound, the Death/MI/ST [1, 2] was “(5.7)”, the “Death/Q-wave MI/IDR” value [1, 2] was “(1.2)” and the Death/ST [1, 2] was “(1.6)”. For the same compound, the IDR [1, 2] was “(0.7)”, the MI [1, 2] was “(4.6)” and the “Q-wave MI” value [1, 2] was “(0.3)”. The Stent thrombosis [1, 2] was “(1.3)”, the “rate of primary composite efficacy end point (death from any cause, myocardial infarction, IDR, or stent thrombosis)” value ([1]; 48 hours, modified intention-to-treat) was 5.9% and the “net rate of adverse clinical events (primary efficacy plus primary safety end point)” value ([1]; 48 hours, post hoc) was 6.0%. The Stent thrombosis ([1]; 30 days) was 1.9%, the “rate of the composite efficacy end point” value ([1]; 30 days) was 7.0% and the “rate of intraprocedural stent thrombosis” value ([1]; in vivo) was 1.0%. For the same compound, the “rate of procedural complications” value ([1]; in vivo) was 4.5% and the “use of rescue therapy with a glycoprotein IIb/IIIa inhibitor” value ([1]; in vivo) was 3.5%.

With `CCCSc1nc(N[C@@H]2C[C@H]2c2ccc(F)c(F)c2)c2nnn([C@@H]3C[C@H](OCCO)[C@@H](O)[C@H]3O)c2n1` [ticagrelor] the “VerifyNow IPR” value (P2Y12 receptor; 2.25 h, All) was 89 ± 11, the “VerifyNow PRU” value (P2Y12 receptor; 2.25 h, All) was 28 ± 28 PRU and the “VerifyNow IPR” value (P2Y12 receptor; 2.25 h, Ticagrelor at 0.5 h) was 90 ± 10. For the same compound, the “VerifyNow PRU” value (P2Y12 receptor; 2.25 h, Ticagrelor at 0.5 h) was 28 ± 27 PRU, the “VerifyNow IPR” value (P2Y12 receptor; 2.25 h, Ticagrelor at 1.25 h) was 89 ± 14 and the “VerifyNow PRU” value (P2Y12 receptor; 2.25 h, Ticagrelor at 1.25 h) was 28 ± 32 PRU. The “VerifyNow IPR” value (P2Y12 receptor; 2.5 h, All) was 70 ± 31, the “VerifyNow PRU” value (P2Y12 receptor; 2.5 h, All) was 76 ± 79 PRU and the “VerifyNow IPR” value (P2Y12 receptor; 2.5 h, Ticagrelor at 0.5 h) was 78 ± 24. The “VerifyNow PRU” value (P2Y12 receptor; 2.5 h, Ticagrelor at 0.5 h) was 60 ± 64 PRU, the “VerifyNow IPR” value (P2Y12 receptor; 2.5 h, Ticagrelor at 1.25 h) was 62 ± 37 and the “VerifyNow PRU” value (P2Y12 receptor; 2.5 h, Ticagrelor at 1.25 h) was 93 ± 94 PRU. For the same compound, the “VerifyNow IPR” value (P2Y12 receptor; 2.75 h, All) was 83 ± 21, the “VerifyNow PRU” value (P2Y12 receptor; 2.75 h, All) was 44 ± 50 PRU and the “VerifyNow IPR” value (P2Y12 receptor; 2.75 h, Ticagrelor at 0.5 h) was 84 ± 15. For the same compound, the “VerifyNow PRU” value (P2Y12 receptor; 2.75 h, Ticagrelor at 0.5 h) was 44 ± 40 PRU, the “VerifyNow IPR” value (P2Y12 receptor; 2.75 h, Ticagrelor at 1.25 h) was 82 ± 27 and the “VerifyNow PRU” value (P2Y12 receptor; 2.75 h, Ticagrelor at 1.25 h) was 44 ± 62 PRU. The “VerifyNow IPR” value (P2Y12 receptor; 3 h, All) was 88 ± 19, the “VerifyNow PRU” value (P2Y12 receptor; 3 h, All) was 31 ± 46 PRU and the “VerifyNow IPR” value (P2Y12 receptor; 3 h, Ticagrelor at 0.5 h) was 87 ± 16. The “VerifyNow PRU” value (P2Y12 receptor; 3 h, Ticagrelor at 0.5 h) was 35 ± 42 PRU, the “VerifyNow IPR” value (P2Y12 receptor; 3 h, Ticagrelor at 1.25 h) was 88 ± 23 and the “VerifyNow PRU” value (P2Y12 receptor; 3 h, Ticagrelor at 1.25 h) was 28 ± 53 PRU. For the same compound, the “VerifyNow IPR” value (P2Y12 receptor; 4 h, All) was 96 ± 4, the “VerifyNow PRU” value (P2Y12 receptor; 4 h, All) was 10 ± 10 PRU and the “VerifyNow IPR” value (P2Y12 receptor; 4 h, Ticagrelor at 0.5 h) was 97 ± 2. For the same compound, the “VerifyNow PRU” value (P2Y12 receptor; 4 h, Ticagrelor at 0.5 h) was 7.3 ± 4.4 PRU, the “VerifyNow IPR” value (P2Y12 receptor; 4 h, Ticagrelor at 1.25 h) was 95 ± 5 and the “VerifyNow PRU” value (P2Y12 receptor; 4 h, Ticagrelor at 1.25 h) was 14 ± 14 PRU. The “VerifyNow IPR” value (P2Y12 receptor; reference 5.25 h, All) was 96 ± 4, the “VerifyNow PRU” value (P2Y12 receptor; reference 5.25 h, All) was 9.5 ± 9.7 PRU and the “VerifyNow IPR” value (P2Y12 receptor; [3]) was 97 ± 2. The “VerifyNow PRU” value (P2Y12 receptor; [3]) was 7.7 ± 5.3 PRU, the “VerifyNow IPR” value (P2Y12 receptor; [4]) was 96 ± 4 and the “VerifyNow PRU” value (P2Y12 receptor; [4]) was 11 ± 7 PRU.
